This is an account of results in publication PMC8971402, “Author Correction: Effects of route of administration on oxytocin-induced changes in regional cerebral blood flow in humans” (Nature Communications, 2022).

What is called Cmax is the maximum level reached in the sampled fluid or tissue.

For data set [1] the following is noted: in vivo.
Text: We present a summary of three
(§1) parameters describing the pharmacokinetics of each treatment administration method. We
(§2) present the maximum plasmatic concentration achieved after dosing (Cmax), the area under the
(§3) curve (AUC) reflecting the magnitude of the variations of plasmatic oxytocin post-dosing and
(§4) the absolute bioavailability of oxytocin absorbed to the plasma, calculated as the dose-corrected
(§5) AUC of each intranasal administration divided by the dose-corrected AUC of the intravenous
(§6) administration. Data are presented as mean (1 standard error of the mean).
Data set [2] in a line: Pharmacokinetics of plasmatic oxytocin after intravenous, nasal spray or nebulizer administration. The conditions noted are these: for Concentration (plasma oxytocin): Condition IV, individual participants (Fig6A source data); for Bioavailability: individual participants, corrected source data (Fig6C).
Text: We present a summary of three
as §1, §2, §3, §4, §5, §6
Data set [3] relates to heart rate and heart rate variability. Set-up: species or system humans. The note with it: in vivo, iv. The protocol:
Supplementary Table 4 – Percentage of observations satisfying quality control criteria for
the pulse plethysmography analysis. Following current recommendations for heart rate data
processing and analysis, if more than 5% of the beats required correction, then we decided to
exclude these periods of observation. In some rare cases where artefacts could not be corrected,
we only included the data if at least 5 min of acquisition free of artefacts could be analysed. In
this table, we present the percentage of total data available satisfying our quality control criteria
for each treatment method of administration and time-interval, so the reader can appreciate the
amount of data effectively used in the final analysis.
Time from last drug administration offset (minutes)
We determined time-interval, treatment, and treatment
x time-interval effects on a set of time domain (heart-rate (HR) and the root mean square of the successive differences (RMSSD), frequency domain
(low (LF) and high (HF) frequencies spectral powers and high/low frequency spectral power ratio (HF/LF)) and non-linear (Approximate entropy
(ApEn), the SD1 and SD2 lines from the Poincare Plot and the detrended fluctuation scaling exponents DFAα1 and DFAα2) analysis measures of
heart rate variability. We used a repeated measures two-way analysis of variance, using subjects, treatment and time as factors, and the Greenhouse- […]

The structures appear in SMILES notation. Values joined by “and” are separate entries in the source; they are usually repeats but may differ in a detail not shown here. Identical values can stand only once.

With `CC[C@H](C)[C@@H]1NC(=O)[C@H](Cc2ccc(O)cc2)NC(=O)[C@@H](N)CSSC[C@@H](C(=O)N2CCC[C@H]2C(=O)N[C@@H](CC(C)C)C(=O)NCC(N)=O)NC(=O)[C@H](CC(N)=O)NC(=O)[C@H](CCC(N)=O)NC1=O` [oxytocin], in data set [1], the “AUC over the observation interval, intravenous OT infusion vs intranasal methods” value is “significantly higher AUC”. In addition, the “Concentration (plasma oxytocin)” value in data set [2] (Sample 2, in pg/mL) is 65.12 and 59.67 and 47.11; in data set [2] (Sample 3) it was 0.0681 ng/mL; in data set [2] (Sample 4), 0.0539 ng/mL; in data set [2] (Sample 4, in pg/mL), 30.93; in data set [2] (Sample 6, in pg/mL) it was 12.86 and 20.71; in data set [2] (Sample 7) it was 0.00723 ng/mL and 0.00461 ng/mL. In addition, the Concentration (plasma oxytocin) in data set [2] (Sample 8) worked out at 0.00377 ng/mL. Moreover, the Bioavailability is 31.90% and 10.30% and 3.30% and 7.94% and 12.67% and 62.94% and 5.39% and 6.53% and 8.236% and 4.17% and 6.07% and 5.20% and 6.82% and 10.22% and 6.95% and 32.80% in data set [2] (Nebuliser); 6.85% and 11.96% and 5.38% and 16.81% and 5.32% and 6.16% and 8.93% and 4.67% and 8.4323% and 12.50% and 14.77% and 6.29% and 7.56% and 11.34% and 5.36% and 37.05% in data set [2] (Spray). For the same molecule, the “Absolute bioavailability of OT absorbed to the plasma, standard nasal spray vs PARI SINUS nebulizer” value in data set [2] (corrected AUCs, paired t-test p = 0.438) is “no significant differences”. For the same molecule, the peak level in data set [2] (human, in vivo, iv, SEM) (Cmax) was 0.0643 ng/mL. The “Effect on heart rate and heart rate variability” value in data set [3] was “did not affect heart rate or heart rate variability”.
